Patent publication US20260125370A1, “SULFOXIMINE COMPOUNDS AS HISTONE DEACETYLASE 6 INHIBITOR, AND PHARMACEUTICAL COMPOSITION COMPRISING THE SAME” (CHONG KUN DANG PHARMACEUTICAL CORP., priority 2022, published 2026)

How the values were obtained:
[1] = target: T1, human recombinant HDAC6 (Homo sapiens, UniProt Q9UBN7); assay: HDAC6 enzyme activity inhibition (fluorimetric, in vitro); type: biochemical; conditions: samples at 0.1, 1, 10, 100 and 1000 nM
T1 construct: purchased Calbiochem 382180
T1 sequence (Q9UBN7 1-1215): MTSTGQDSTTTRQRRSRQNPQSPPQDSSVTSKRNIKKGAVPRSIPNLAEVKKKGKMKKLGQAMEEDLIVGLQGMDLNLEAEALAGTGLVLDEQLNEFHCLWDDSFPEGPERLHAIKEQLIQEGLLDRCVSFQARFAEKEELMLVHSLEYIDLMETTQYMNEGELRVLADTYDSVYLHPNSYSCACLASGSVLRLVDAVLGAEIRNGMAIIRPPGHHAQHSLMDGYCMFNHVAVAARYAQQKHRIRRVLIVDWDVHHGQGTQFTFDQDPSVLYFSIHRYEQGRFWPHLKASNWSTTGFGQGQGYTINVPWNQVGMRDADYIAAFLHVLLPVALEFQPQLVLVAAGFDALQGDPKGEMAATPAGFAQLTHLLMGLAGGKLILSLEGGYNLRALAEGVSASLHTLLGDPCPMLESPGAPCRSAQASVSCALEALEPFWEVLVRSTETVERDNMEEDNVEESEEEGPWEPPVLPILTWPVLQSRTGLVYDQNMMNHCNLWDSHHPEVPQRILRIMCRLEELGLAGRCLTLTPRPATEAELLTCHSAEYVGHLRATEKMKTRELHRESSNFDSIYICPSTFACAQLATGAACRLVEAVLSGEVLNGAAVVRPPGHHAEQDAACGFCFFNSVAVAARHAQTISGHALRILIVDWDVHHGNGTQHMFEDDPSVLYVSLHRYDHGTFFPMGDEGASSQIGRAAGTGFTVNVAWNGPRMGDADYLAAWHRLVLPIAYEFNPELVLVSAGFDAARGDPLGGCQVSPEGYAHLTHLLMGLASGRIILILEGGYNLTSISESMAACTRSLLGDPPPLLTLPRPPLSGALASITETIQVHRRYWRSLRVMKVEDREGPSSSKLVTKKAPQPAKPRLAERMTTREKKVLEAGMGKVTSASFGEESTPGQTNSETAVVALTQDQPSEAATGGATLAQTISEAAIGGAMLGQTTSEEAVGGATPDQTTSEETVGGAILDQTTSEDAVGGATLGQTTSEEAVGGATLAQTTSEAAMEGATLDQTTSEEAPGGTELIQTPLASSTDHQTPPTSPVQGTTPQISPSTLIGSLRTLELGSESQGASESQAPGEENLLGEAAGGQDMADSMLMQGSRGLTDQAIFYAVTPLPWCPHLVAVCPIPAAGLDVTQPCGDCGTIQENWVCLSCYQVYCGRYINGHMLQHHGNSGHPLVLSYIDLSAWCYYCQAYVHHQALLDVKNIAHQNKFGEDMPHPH
Procedure: (§1) A HDAC enzyme inhibitory capacity of a test material was measured by using HDAC1 Fluorimetric Drug Discovery Assay Kit (Enzolifesciences: BML-AK511) and HDAC6 human recombinant (Calbiochem: 382180). For a HDAC1 assay, samples were treated at a concentration of 100, 1000 and 10000 nM. For a HDAC6 assay, samples were treated at a concentration of 0.1, 1, 10, 100 and 1000 nM.
(§2) For the test on the HDAC1 enzyme activity, human recombinant HDAC1 (BML-SE456) was used as a zymogen and Fluor de Lys®-SIRT1 (BNL-KI177) was used as a substrate. A 5-fold dilution of the compound was divided into a 96-well plate, after which 0.3 μg of the enzyme and […] of the substrate were inserted into each well and subjected to reaction at 37° C. for 60 minutes, such that Fluor de Lys® Developer II (BML-K1176) was inserted thereinto and subjected to reaction for 30 minutes and finished. After that, a fluorescence value (Ex 360, Em 460) was measured with a multi-plate reader (FlexStation 3, Molecular Device). An experiment on HDAC6 enzyme was conducted in accordance with the same protocol as in the HDAC1 enzyme activity test method by using human recombinant HDAC6 (382180) of Calbiochem Inc. For final result values, each IC50 value was calculated with GraphPad Prism 4.0 program.

[2] = target: T2, human recombinant HDAC1 (Homo sapiens, UniProt Q13547); assay: HDAC1 enzyme activity inhibition (HDAC1 Fluorimetric Drug Discovery Assay Kit, in vitro); type: biochemical; conditions: samples at 100, 1000 and 10000 nM
T2 construct: purchased Enzolifesciences BML-SE456
T2 sequence (Q13547 whole entry): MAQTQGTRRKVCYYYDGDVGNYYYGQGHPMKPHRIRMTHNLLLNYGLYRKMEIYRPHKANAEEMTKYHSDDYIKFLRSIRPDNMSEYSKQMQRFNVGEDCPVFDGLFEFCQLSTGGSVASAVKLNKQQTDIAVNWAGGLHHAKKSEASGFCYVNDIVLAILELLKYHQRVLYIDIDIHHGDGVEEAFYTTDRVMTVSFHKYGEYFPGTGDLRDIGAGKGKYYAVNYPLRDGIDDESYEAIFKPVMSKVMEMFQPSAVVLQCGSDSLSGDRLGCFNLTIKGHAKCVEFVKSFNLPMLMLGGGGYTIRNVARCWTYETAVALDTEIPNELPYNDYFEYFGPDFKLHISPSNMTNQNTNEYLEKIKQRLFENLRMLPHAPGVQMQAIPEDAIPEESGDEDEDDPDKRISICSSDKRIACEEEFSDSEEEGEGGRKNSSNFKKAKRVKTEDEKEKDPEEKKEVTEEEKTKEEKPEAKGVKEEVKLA
Procedure: as §1, §2

| IC50 [1] [µM] | IC50 [2] [µM] | SMILES |
| --- | --- | --- |
| 0.113 | > 10 | N=S1(=O)CCC(N2C[C@@H]3C[C@H]2CN3C(=O)N(Cc2ccc(-c3nnc(C(F)F)o3)cn2)c2ccccc2F)CC1 (stereo partly drawn) [Compound 48, (1S,4S)—N-((5-(5-(difluoromethyl)-1,3,4-oxadiazol-2-yl)pyridin-2-yl)methyl)-N-(2-fluorophenyl)-5-(1-imino-1-oxidotetrahydro-2H-thiopyran-4-yl)-2,5-diazabicyclo[2.2.1]heptan-2-carboxamide] |
| 0.0644 | > 10 | N=S1(=O)CCN(C(=O)N(Cc2ccc(-c3nnc(C(F)F)o3)cc2F)c2ccc(-c3ccco3)cc2)CC1 [Compound 23, N-(4-(5-(difluoromethyl)-1,3,4-oxadiazol-2-yl)-2-fluorobenzyl)-N-(4-(furan-2-yl)phenyl)-1-iminothiomorpholin-4-carboxamide 1-oxide] |
| 0.0806 | > 10 | Cc1cccc(N(Cc2ccc(-c3nnc(C(F)F)o3)cc2F)C(=O)N2CCS(=N)(=O)CC2)c1 [Compound 32, N-(4-(5-(difluoromethyl)-1,3,4-oxadiazol-2-y1)-2-fluorobenzyl)-1-imino-N-(m-tolyl)thiomorpholin-4-carboxamide 1-oxide] |
| 0.0699 | > 10 | N=S1(=O)CCN(C(=O)N(Cc2ccc(-c3nnc(C(F)F)o3)cc2F)c2ccc(Cl)cc2Cl)CC1 [Compound 51, N-(2,4-dichlorophenyl)-N-(4-(5-(difluoromethyl)-1,3,4-oxadiazol-2-y1)-2-fluorobenzyl)-1-iminothiomorpholin-4-carboxamide 1-oxide] |
| 0.168 | > 10 | O=C(N1CCS(=O)(=NC(=O)C(F)(F)F)CC1)N(Cc1ccc(-c2nnc(C(F)F)o2)cn1)c1ccccc1 [Compound 2, N-((5-(5-(difluoromethyl)-1,3,4-oxadiazol-2-yl)pyridin-2-yl)methyl)-N-phenyl-1-((2,2,2-trifluoroacetyl)imino)thiomorpholin-4-carboxamide 1-oxide] |
| 0.294 | > 10 | N=S1(=O)CCN(C(=O)N(Cc2ccc(-c3nnc(C(F)F)o3)cc2F)c2ccc(SC(F)(F)F)cc2)CC1 [Compound 21, N-(4-(5-(difluoromethyl)-1,3,4-oxadiazol-2-y1)-2-fluorobenzyl)-1-imino-N-(4-((trifluoromethyl)thio)phenyl)thiomorpholin-4-carboxamide 1-oxide] |
| 0.0914 | > 10 | N=S1(=O)CCN(C(=O)N(Cc2ccc(-c3nnc(C(F)F)o3)cc2F)c2cccc(C(F)(F)F)c2)CC1 [Compound 31, N-(4-(5-(difluoromethyl)-1,3,4-oxadiazol-2-y1)-2-fluorobenzyl)-1-imino-N-(3-(trifluoromethyl)phenyl)thiomorpholin-4-carboxamide 1-oxide] |
| 0.0808 | > 10 | CN=S1(=O)CCN(C(=O)N(Cc2ccc(-c3nnc(C(F)F)o3)cc2F)c2ccccc2)CC1 [Compound 39, N-(4-(5-(difluoromethyl)-1,3,4-oxadiazol-2-yl)-2-fluorobenzyl)-1-(methylimino)-N-phenylthiomorpholin-4-carboxamide 1-oxide] |
| 0.0317 | > 10 | N=S1(=O)CCN(S(=O)(=O)N(Cc2ccc(-c3nnc(C(F)F)o3)cn2)c2cccc(Cl)c2)CC1 [Compound 71, N-(3-chlorophenyl)-N-[[5-[5-(difluoromethyl)-1,3,4-oxadiazol-2-yl]-2-pyridyl]methyl]-1-imino-1-oxo-1,4-thiazinan-4-sulfonamide] |
| 0.0341 | > 10 | N=S1(=O)CC(N2C[C@@H]3C[C@H]2CN3c2c(N(Cc3ccc(-c4nnc(C(F)F)o4)cc3F)c3ccccc3)c(=O)c2=O)C1 (stereo partly drawn) [Compound 89, 3-[N-[[4-[5-(difluoromethyl)-1,3,4-oxadiazol-2-yl]-2-fluoro-phenyl]methyl]anilino]-4-[(1S,4S)-5-(1-imino-1-oxo-thiethan-3-yl)-2,5-diazabicyclo[2.2.1]heptan-2-yl]cyclobut-3-en-1,2-dione] |
| 0.0788 | > 10 | COc1cccc(N(Cc2ccc(-c3nnc(C(F)F)o3)cn2)S(=O)(=O)N2CCS(=N)(=O)CC2)c1 [Compound 72, N-[[5-[5-(difluoromethyl)-1,3,4-oxadiazol-2-yl]-2-pyridyl]methyl]-1-imino-N-(3-methoxyphenyl)-1-oxo-1,4-thiazinan-4-sulfonamide] |
| 0.0777 | > 10 | N=S1(=O)CCN(C(=O)N(Cc2ccc(-c3nnc(C(F)F)o3)cn2)c2ccc(Cl)cc2Cl)CC1 [Compound 49, N-(2,4-dichlorophenyl)-N-((5-(5-(difluoromethyl)-1,3,4-oxadiazol-2-yl)pyridin-2-yl)methyl)-1-iminothiomorpholin-4-carboxamide 1-oxide] |
| 0.0902 | > 10 | N=S1(=O)CCN(C(=O)N(Cc2ccc(-c3nnc(C(F)F)o3)cc2F)c2cccnc2)CC1 [Compound 66, N-[[4-[5-(difluoromethyl)-1,3,4-oxadiazol-2-yl]-2-fluoro-phenyl]methyl]-1-imino-1-oxo-N-(3-pyridyl)-1,4-thiazinan-4-carboxamide] |
| 0.0597 | > 10 | N=S1(=O)CCN(S(=O)(=O)N(Cc2ccc(-c3nnc(C(F)F)o3)cc2F)c2cccc(F)c2)CC1 [Compound 35, N-(4-(5-(difluoromethyl)-1,3,4-oxadiazol-2-yl)-2-fluorobenzyl)-N-(3-fluorophenyl)-1-iminothiomorpholin-4-sulfonamide 1-oxide] |
| 0.0713 | > 10 | N=S1(=O)CC(N2CC3(CN(C(=O)N(Cc4ccc(-c5nnc(C(F)F)o5)cc4F)c4ccccc4)C3)C2)C1 (centres unmarked) [Compound 83, N-[[4-[5-(difluoromethyl)-1,3,4-oxadiazol-2-yl]-2-fluoro-phenyl]methyl]-6-(1-imino-1-oxo-thiethan-3-yl)-N-phenyl-2,6-diazaspiro[3.3]heptan-2-carboxamide] |
| 0.0636 | > 10 | N=S1(=O)CCN(C(=O)N(Cc2ccc(-c3nnc(C(F)F)o3)cn2)c2cc(F)ccc2F)CC1 [Compound 45, N-((5-(5-(difluoromethyl)-1,3,4-oxadiazol-2-yl)pyridin-2-yl)methyl)-N-(2,5-difluorophenyl)-1-iminothiomorpholin-4-carboxamide 1-oxide] |
| 0.0866 | > 10 | COc1ccc(N(Cc2ccc(-c3nnc(C(F)F)o3)cc2F)C(=O)N2CCS(=N)(=O)CC2)cc1 [Compound 27, N-(4-(5-(difluoromethyl)-1,3,4-oxadiazol-2-y1)-2-fluorobenzyl)-1-imino-N-(4-methoxyphenyl)thiomorpholin-4-carboxamide 1-oxide] |
| 0.0502 | > 10 | N=S1(=O)CCN(S(=O)(=O)N(Cc2ncc(-c3nnc(C(F)F)o3)s2)c2ccccc2)CC1 [Compound 86, N-[[5-[5-(difluoromethyl)-1,3,4-oxadiazol-2-yl]thiazol-2-yl]methyl]-1-imino-1-oxo-N-phenyl-1,4-thiazinan-4-sulfonamide] |
| 0.0963 | > 10 | CS(=N)(=O)C1CCN(C(=O)N(Cc2ccc(-c3nnc(C(F)F)o3)cc2F)c2ccccc2)CC1 (centres unmarked) [Compound 75, N-[[4-[5-(difluoromethyl)-1,3,4-oxadiazol-2-yl]-2-fluoro-phenyl]methyl]-4-(methylsulfonimidoyl)-N-phenyl-piperidin-1-carboxamide] |
